Patent publication US12157882B2, “Lactobacillus plantarum strain ATG-K2, ATG-K6 or ATG-K8, and composition for preventing or treating vaginitis comprising same” (ATOGEN CO., LTD, priority 2018, dated 2024)

How the values were obtained:
[1] = tested on: IL-6 in mouse macrophage cell line RAW264.7; experiment: IL-6 ELISA, RAW264.7 cells treated with lactic-acid bacteria lysate; assay type: cell-based; details: lysate 100 μg/ml and 500 μg/ml, 24 hr
Description: In order to measure the immunological effects of K2, K6 and K8 lactic-acid bacteria, a cytokine quantification experiment using cells was performed. The cells that were used were a mouse macrophage cell line RAW264.7, and the medium used for each cell experiment was a Gibco® Dulbecco's Modified Eagle Medium (DMEM, Gibco, USA) supplemented with 10% fetal bovine serum (Gibco, USA) and 1% penicillin/streptomycin cocktail (Sigma-Aldrich, Germany). RAW264.7 cells cultured at about 80-90% confluency before material treatment were recovered and seeded in an amount of 1×10^6 cells per well of a 24-well plate. After seeding, culture was carried out in an environment of 37° C. and 5% CO2 for 24 hr in order to realize attachment to the 24-well plate and stabilization thereof. Each well was treated with the lactic-acid bacteria lysate at concentrations of 100 μg/ml and 500 μg/ml, and 1 μg/ml of lipopolysaccharide (LPS, Sigma-Aldrich, Germany) was used as a positive control, and an experimental group not treated with any material was used as a negative control. The cells were cultured at 37° C. and 5% CO2 for 24 hr after material treatment, and the cell culture solution was recovered, followed by enzyme-linked immunosorbent assay (ELISA) for IL-6 and TNF-α. Measurement was performed for IL-6 using a Mouse IL-6 Quantikine ELISA Kit (R&D systems, USA) and for TNF-α using a Mouse TNF-alpha Quantikine ELISA Kit (R&D systems, USA).

[2] = Heat resistance: viable cell count while bathing at 70° C. in a water bath; assay type: physicochemical
Description: In order to investigate the heat resistance of lactic-acid bacteria of the present disclosure, samples were obtained at 20 sec, 40 sec, 60 sec, and 80 sec while bathing at 70° C. in a water bath, a viable cell count was taken to thus determine resistance to heat, and the results thereof are shown in Table 2 below and in FIG. 2. In Table 2 and in FIG. 2, a viable cell count is represented as a Log10 CFU/ml value, and the number in parentheses represents the viability (%) compared to the initial count. Each result value is the average of three independent experiments.

[3] = Bile salt hydrolase (BSH) activity on MRS agar with 0.5% sodium taurocholic acid; details: MRS agar with 0.5% (w/v) TDCA, anaerobic, 37° C., about 72 hr
Description: In order to confirm the presence or absence of bile salt hydrolase (BSH) activity as the function of each of the lactic-acid bacteria, an experiment was performed in accordance with the method described in Dashkevicz and Feighner (1989). Briefly, an agar medium was prepared by adding 0.5% (w/v) sodium taurocholic acid (TDCA, Sigma-Aldrich, Germany) to MRS.

[4] = Ability to produce hydrogen peroxide (tetramethylbenzidine MRS agar); details: anaerobic, 37° C., about 48-72 hr, color change after exposure to air
Description: For the ability to produce hydrogen peroxide as the function of each of the lactic-acid bacteria, an agar medium was prepared by adding 0.25 mg/ml of tetramethylbenzidine (Sigma-Aldrich, Germany) and […] to MRS (McGroarty et al., 1992). Here, the additives were added at about 50° C. after autoclaving of the MRS agar. Each of the lactic-acid bacteria was inoculated into the completely hardened test agar medium, placed in an anaerobic jar, and cultured at 37° C. for about 48-72 hr. After culture, the lactic-acid bacteria were taken out of the anaerobic jar and exposed to air, and the colony and the surrounding color change were observed.

[5] = tested on: Gardnerella vaginalis KCTC5096 (GV); experiment: Disinfection power through coculture; assay type: cell-based; details: coculture 1:1, at 24 hr
Description: (§1) The anti-vaginitis effect of the lactic-acid bacteria of the present disclosure was tested for disinfection power on the vaginitis pathogen through coculture. In the anti-CA experiment, CA at a concentration of about 2.5×10^6 CFU/ml and each of lactic-acid bacteria at a concentration of about 2.5×10^6 CFU/ml were mixed at a ratio of 1:1, and coculture thereof was carried out in a culture medium of YM and MRS mixed at 1:1. In the anti-GV experiment, GV at a concentration of about 1.0×10^8 CFU/ml and each of lactic-acid bacteria at a concentration of about 1.0×10^8 CFU/ml were mixed at a ratio of 1:1 and then inoculated into a 10% horse-serum BHI broth. Each coculture experiment was conducted for 48 hr, and portions of the samples were collected initially and every 24 hr, and a viable cell count was taken through a serial dilution method and a plate-spreading method. In the anti-CA experiment, in order to measure CA alone, a YM plate medium containing ampicillin at a concentration of 100 μg/ml was used. In the anti-GV experiment, CFU was measured by distinguishing the colony forms between GV and lactic-acid bacteria using a 5% rabbit blood BHI plate medium.

[6] = tested on: Candida albicans KCTC7678 (CA); experiment: Disinfection power through coculture; assay type: cell-based; details: for disinfection power on CA: coculture 1:1, at 24 hr; for CA in coculture: coculture 1:1, at 48 hr
Description: as §1

sheep blood = assay type: cell-based
Description: In order to evaluate the presence or absence of hemolysis of lactic-acid bacteria in relation to safety of probiotics, K2, K6 and K8 strains were inoculated into a tryptic soybean agar (TSA, Difco Laboratories, USA) containing 5% sheep blood, and were then cultured at 37° C. for about 24 to 48 hr.

[7] = ABTS radical-scavenging experiment with lactic-acid bacteria lysate; assay type: biochemical; details: for ABTS radical-scavenging activity: lactic-acid bacteria lysate, dark reaction 10 min, 734 nm; for antioxidant activity, ranking among strains: lysate, at 10 mg and above
Description: In order to evaluate the antioxidant activity of each of the lactic-acid bacteria strains, a radical-scavenging experiment was conducted using 2,2′-azino-bis(3-ethylbenzthiazoline-6-sulfonic acid) (ABTS, Sigma-Aldrich, Germany). Briefly, lactic-acid bacteria were cultured for about 24 hr, allowed to react with lysozyme (Sigma-Aldrich, Germany) for 2 hr at 37° C., and lysed through sonication to obtain each lactic-acid bacteria lysate. The solid content thereof was measured using a water content analyzer, and a stock solution was adjusted to a concentration of 50 mg/ml. To prepare ABTS, 14 mM ABTS stock solution and 4.9 mM potassium persulfate were mixed at a volume ratio of 1:1, followed by dark reaction overnight so that the resulting mixture turned blue-green. A working solution obtained by diluting the corresponding solution until an absorbance OD-734 reached about 0.7 was added with 10% of each lactic-acid bacteria lysate sample, followed by dark reaction for 10 min, after which the absorbance at a wavelength of 734 nm was measured, and each measured value was substituted into the following equation. ABTS radical-scavenging activity (%)={1−(ODsample/ODcontrol)}×100

[8] = Initial, average of three independent experiments

Row | Substance | IL-6 production compared to the control [1] | viability compared to the initial count ([2]; 70° C. water bath, 20 sec) | viable cell count ([2]; 70° C. water bath, 20 sec) | viability compared to the initial count ([2]; 70° C. water bath, 40 sec) | viable cell count ([2]; 70° C. water bath, 40 sec) | viability compared to the initial count ([2]; 70° C. water bath, 60 sec) | viable cell count ([2]; 70° C. water bath, 60 sec) | viability compared to the initial count ([2]; 70° C. water bath, 60 sec, listed as K2) | viability compared to the initial count ([2]; Initial) | viable cell count [2, 8] | bile salt hydrolase (BSH) activity [3] | ability to produce hydrogen peroxide [4] | disinfection power on GV [5] | disinfection power on CA [6] | CA in coculture [6] | hemolysis and clear zones (sheep blood) | ABTS radical-scavenging activity [7] | viability compared to the initial count ([2]; 70° C. water bath, 60 sec, listed as K6) | antioxidant activity, ranking among strains [7] | viability compared to the initial count ([2]; 70° C. water bath, 60 sec, listed as K8)
1 | Lactobacillus plantarum ATG-K2 [Lb. plantarum ATG-K2] | induced | (109.65% | 8.99 Log10 CFU/ml | (91.33% | 8.92 Log10 CFU/ml | (70.95% | 8.80 Log10 CFU/ml | 70.95% | (100.00% | 8.95 Log10 CFU/ml | exhibited BSH activity | produced hydrogen peroxide | 87.37% | 99.03% | completely disappeared | not observed | exhibited radical-scavenging activity |  |  | 
2 | Lactobacillus plantarum ATG-K6 [Lb. plantarum ATG-K6] | induced | (97.27% | 9.43 Log10 CFU/ml | (87.46% | 9.38 Log10 CFU/ml | (68.88% | 9.28 Log10 CFU/ml |  | (100.00% | 9.44 Log10 CFU/ml | exhibited BSH activity | produced hydrogen peroxide | 92.50% | 99.49% | completely disappeared | not observed | exhibited radical-scavenging activity | 68.88% | greatest effect | 
3 | Lactobacillus plantarum ATG-K8 [Lb. plantarum ATG-K8] | induced | (89.67% | 9.49 Log10 CFU/ml | (75.26% | 9.41 Log10 CFU/ml | (74.32% | 9.41 Log10 CFU/ml |  | (100.00% | 9.55 Log10 CFU/ml | exhibited BSH activity | produced hydrogen peroxide | 93.71% | 99.53% | completely disappeared | not observed | exhibited radical-scavenging activity |  | next-greatest antioxidant activity | 74.32%
